In US20080146592A1, “Method of Treating Preeclampsia Employing Metolazone” (priority 2003, published 2008):

Tested on: “preeclamptic” rat model
Experiment: "preeclamptic" rat model (pregnant rats, saline drinking water plus weekly DOCA)
Assay type: in vivo, Sprague-Dawley rats
Method: Metolazone is a diuretic with unique properties. At low doses, it reduces blood pressure in our “preeclamptic” rat model. Female Sprague-Dawley rats were mated and the “preeclamptic” syndrome was induced by replacing their drinking water with saline and injecting them with DOCA at weekly intervals. When hypertension had occurred (3-5 days of gestation), the animals were randomly divided into two groups: 1) Group I (PE+M), n=7, was given metolazone in a daily dose of 0.04 mg/kg body weight daily for 12-14 day by gavage and 2) Group II (PE) n=5, was simply given the vehicle (saline).

[1] = rat model of preeclampsia, metolazone treatment

With `Cc1ccccc1N1C(=O)c2cc(S(N)(=O)=O)c(Cl)cc2NC1C` (stereo not shown) [Metolazone, metolazone] the “Urinary sodium excretion after M” value (PE+M rats, 0.04 mg/kg daily by gavage, 16.2+/−6 mM/24 h prior to M administration, p>0.05) was 15.3 mM/24 h, the “Growth retardation (animals affected)” value (PE+M rats, seen in four of the five vehicle PE animals) was “none” and the “Weight gain versus vehicle group” value (PE+M versus PE rats) was “similar”. For the same compound, the “Blood pressure in the PE+M animals after treatment (mean)” value (metolazone 0.04 mg/kg body weight daily for 12-14 day by gavage, before treatment 119+/−3 mm Hg, vehicle PE rats 121+/−7 mm Hg, p<0.01) was 100+/−16 mm/Hg, the “Effect on intrauterine growth restriction” value [1] was “beneficial effect” and the “Influence on pup number and development” value [1] was “positive influence”. The Volume contraction (rat model of preeclampsia, non-diuretic dose) was “without causing volume contraction”.
